Measurements as given in US8999419B2, “Enhancement of potato tuber sprouting inhibitors using various combinations of agents” (Washington State University, priority 2010, dated 2015).

Assays:
'Ranger Russet' tubers [1] = assay: Days to average sprout length of 10 mm, 2-decanone followed by CIPC; format: in vivo, potato
Experimental: (§1) This study, as described, used 3-decen-2-one (3D2). The study was duplicated as described with 2-decanone in place of 3D2. Tubers were stored at 9° C. until they emerged from dormancy (when 75% of the sample tubers are peeping, and the longest sprouts are no longer than 4 mm). At this time, 3-decen-2-one was applied at 0.75, 0.50, or 0.25 mmol/kg to ‘burn off’ growing sprouts. Each of these treatments was followed by applications of 1, 0.73, 0.47 or 0.20% a.i. of CIPC EC. The label rate of CIPC EC is 1% a.i. and results in a 10 mg/kg fresh wt application when applied as directed. Sprout measurements were obtained every two weeks. The length of the longest sprout on each tuber was recorded. The average length of the longest sprout was plotted over time for each treatment combination. The days to 10 mm were estimated from the second linear regression line of each element. Positive control treatments included the three rates of 3D2 alone and four post-sprouting concentrations of CIPC alone. The standard control treatment consisted of non-treated tubers.

Russet Burbank tubers = assay: Sprout fresh weight after 24 h chamber treatment with 3N2 and 2-nonanone mixtures; format: in vivo, potato; conditions: treated 24 h, 21 days at 22° C.
Experimental: FIG. 1. Effects of 3-nonen-2-one (3N2) in various combinations with 2-nonanone on sprouting of Russet Burbank tubers. The compounds were applied as described in Example 1. Tubers were treated for 24 h, removed from treatment chambers, and placed at 22° C. to sprout for 3 weeks. Sprout fresh weight is expressed as a percentage of control (non-treated), which were 100% sprouted.
The objective of this study was to determine the efficacy of mixtures of 3N2 and its metabolite, 2-nonanone, on sprout inhibition. Potato tubers were treated for 24 h in a closed chamber. The chemicals were volatilized from filter paper inside the chamber. Treatment was with 0 to 0.75 mmol/kg of 3N2 combined factorially with 0 to 0.75 mmol/kg of 2-nonanone. The treated tubers were placed at 22° C. and sprout fresh weights were measured 21 days after treatment. Sprout growth from tubers treated with 0.5 and 0.75 mmol/kg 2-nonanone averaged 58% of non-treated tubers, compared with 9% for […] applied alone (FIG. 1).

'Ranger Russet' tubers [2] = assay: Days to average sprout length of 10 mm, 3-decen-2-one followed by CIPC; format: in vivo, potato
Experimental: The study used CIPC to extend the sprout-free period following an application of 3-decen-2-one or 2-decanone after sprouting occurs. Protocol.
as §1

[3] = system: Russet Burbank potato tubers; assay: Sprout-free interval after CIPC and trans-2-nonenal, alone or in sequence; format: in vivo; conditions: CIPC 20 mg/kg; T2N 0.75 mmol/kg; applied at 151 DAH; tubers stored at 9° C.
Experimental: FIGS. 2A and B. Treatment with combination of T2N and CIPC. A, sprout growth in “Russet Burbank” tubers treated as indicated with CIPC, trans-2-nonenal, or trans-2-nonenal and CIPC in sequence; fresh weight of sprouts (g/tuber) at the indicated time points. CIPC, 20 mg/kg; T2N, 0.75 mmol/kg; B, photo of tubers.
Following the emergence of Russet Burbank potato tubers from dormancy, CIPC and trans-2-nonenal were applied either alone or sequentially as indicated in FIG. 2A. All treatments were applied at 151 days after harvest (DAH). Sprout control was considered to end when one third of the tubers in the sample produced a sprout mass of greater than 50 mg/tuber or when the mean of the total sample exceeded 1 g/tuber. When both CIPC and trans-2-nonenal were used, the sprout-free interval of the tubers stored at 9° C. […] In this study, the application of CIPC was unconventional in that it occurred when tubers were beginning to sprout, as opposed to the window between wound healing and sprouting. CIPC provided additional sprout control on tubers whose actively growing sprouts were initially terminated by trans-2-nonenal, i.e. when used in combination with trans-2-nonenal. Trans-2-nonenal thus expands the window of opportunity for application of CIPC and this invention can therefore be useful to reduce the application rate and residues of CIPC.

[4] = 116 mg kg-1 rate, no subsequent treatment with CIPC

Structure (SMILES): CCCCCCCCC(C)=O [2-decanone]
- Control before sprouting re-occurred ('Ranger Russet' tubers [1]; 0.25 mmol/kg rate): approximately 1 month
- Days of control following application ('Ranger Russet' tubers [1]; [4]): 50 days
- Days to 10 mm Actual ('Ranger Russet' tubers [1]; 2-decanone 39 mg kg-1 fresh wt alone (CIPC 0)): 34 days
- Days to 10 mm Actual ('Ranger Russet' tubers [1]; 2-decanone 77 mg kg-1 fresh wt alone (CIPC 0)): 42 days
- Days to 10 mm Actual ('Ranger Russet' tubers [1]; 2-decanone 116 mg kg-1 fresh wt alone (CIPC 0)): 49 days

Structure (SMILES): CCCCCCCC(C)=O [2-nonanone]
- Sprout growth (fresh weight) as percentage of non-treated tubers (Russet Burbank tubers; 0.5 and 0.75 mmol/kg 2-nonanone, averaged): 58%

Structure (SMILES): CC(C)OC(=O)Nc1cccc(Cl)c1 [CIPC, chlorpropham, reference compound]
- Days to 10 mm Actual ('Ranger Russet' tubers [2]; CIPC 2.0 mg kg-1 fresh wt alone (3D2 0), Table 1 study): 51 days
- Days to 10 mm Actual ('Ranger Russet' tubers [2]; CIPC 4.7 mg kg-1 fresh wt alone (3D2 0), Table 1 study): 80 days
- Days to 10 mm Actual ('Ranger Russet' tubers [2]; CIPC 7.3 mg kg-1 fresh wt alone (3D2 0), Table 1 study): 99 days
- Days to 10 mm Actual ('Ranger Russet' tubers [2]; CIPC 10 mg kg-1 fresh wt alone (3D2 0), Table 1 study): 95 days
- Sprout-free interval [3]: 124 days
- Days to 10 mm Actual ('Ranger Russet' tubers [1]; CIPC 2.0 mg kg-1 fresh wt alone (2-decanone 0), Table 2 study): 85 days
- Days to 10 mm Actual ('Ranger Russet' tubers [1]; CIPC 4.7 mg kg-1 fresh wt alone (2-decanone 0), Table 2 study): 113 days
- Days to 10 mm Actual ('Ranger Russet' tubers [1]; CIPC 7.3 mg kg-1 fresh wt alone (2-decanone 0), Table 2 study): 110 days
- Days to 10 mm Actual ('Ranger Russet' tubers [1]; CIPC 10 mg kg-1 fresh wt alone (2-decanone 0), Table 2 study): 112 days

Structure (SMILES): CCCCCC/C=C/C=O [trans-2-nonenal]
- Sprout-free interval [3]: 155 days

Structure (SMILES): CCCCCC=CC(C)=O [3N2, 3-nonen-2-one]
- Sprout growth (fresh weight) as percentage of non-treated tubers (Russet Burbank tubers; 0.75% 3N2 applied alone): 9%

Structure (SMILES): CCCCCCC=CC(C)=O [3D2, 3-decen-2-one]
- Control before sprouting re-occurred ('Ranger Russet' tubers [2]; 0.25 mmol/kg rate): approximately 1 month
- Days of control following application ('Ranger Russet' tubers [2]; [4]): 58 days
- Days to 10 mm Actual ('Ranger Russet' tubers [2]; 3D2 39 mg kg-1 fresh wt alone (CIPC 0)): 38 days
- Days to 10 mm Actual ('Ranger Russet' tubers [2]; 3D2 77 mg kg-1 fresh wt alone (CIPC 0)): 40 days
- Days to 10 mm Actual ('Ranger Russet' tubers [2]; 3D2 116 mg kg-1 fresh wt alone (CIPC 0)): 57 days
